Measured values as given in ChEMBL document CHEMBL1151877, “Examination of halogen substituent effects on HIV-1 integrase inhibitors derived from 2,3-dihydro-6,7-dihydroxy-1H-isoindol-1-ones and 4,5-dihydroxy-1H-isoindole-1,3(2H)-diones” (Bioorg Med Chem Lett, 2009).

What was measured:
[1] = molecular target: T1, Human immunodeficiency virus type 1 integrase (Human immunodeficiency virus 1, UniProt Q7ZJM1); test: Inhibition of HIV1 integrase strand transfer activity in presence of magnesium
[2] = system: Human immunodeficiency virus 1; test: Antiviral activity against VSV-g-pseudotyped HIV1 assessed as inhibition of viral infection in human HOS cells pretreated for 3 hrs before viral infection by luciferase reporter gene assay; type: functional, organism-based; conditions: Human immunodeficiency virus 1, HOS
[3] = system: HOS; test: Cytotoxicity against human HOS cells; type: cell-based
[4] = molecular target: T1, Human immunodeficiency virus type 1 integrase; test: Inhibition of HIV1 integrase 3'-processing activity in presence of magnesium
[5] = molecular target: Human immunodeficiency virus type 1 integrase (Human immunodeficiency virus 1) (UniProt Q7ZJM1); test: Selectivity ratio of IC50 for HIV1 integrase strand transfer activity to IC50 for HIV1 integrase 3'-processing activity
Chain of Human immunodeficiency virus type 1 integrase (Human immunodeficiency virus 1) (Q7ZJM1 as listed by the source): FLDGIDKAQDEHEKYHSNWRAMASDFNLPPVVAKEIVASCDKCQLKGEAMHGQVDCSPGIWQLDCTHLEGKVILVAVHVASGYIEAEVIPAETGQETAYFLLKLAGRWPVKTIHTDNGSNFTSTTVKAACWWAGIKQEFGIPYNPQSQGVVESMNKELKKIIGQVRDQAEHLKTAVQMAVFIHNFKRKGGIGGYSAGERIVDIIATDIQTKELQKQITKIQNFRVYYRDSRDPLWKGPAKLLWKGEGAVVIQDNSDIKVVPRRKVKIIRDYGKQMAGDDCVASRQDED

T1 sequence (Q7ZJM1 whole entry): as the sequence (Q7ZJM1 as listed by the source) above

| Compound | IC50 [1] | EC50 [2] | IC50 [3] | IC50 [4] | Ratio IC50 [5] |
| --- | --- | --- | --- | --- | --- |
| O=C1c2ccc(O)c(O)c2C(=O)N1Cc1cccc(Cl)c1 | 0.4 µM | 4.2 µM | 13.3 µM | 14 µM |  |
| O=C1c2ccc(O)c(O)c2C(=O)N1Cc1c(F)ccc(F)c1F | 1.8 µM |  |  | 158 µM |  |
| O=C1c2c(ccc(O)c2O)CN1Cc1ccccc1F | 25 µM |  |  | > 333 µM |  |
| O=C1c2c(ccc(O)c2O)CN1Cc1ccc(F)cc1Cl | 2.5 µM |  |  | > 333 µM | 700 |
| O=C1c2c(ccc(O)c2O)CN1Cc1cc(F)cc(F)c1 | 0.3 µM | 2.42 µM | 17.2 µM | 233 µM |  |
| Cc1cc(CN2C(=O)c3ccc(O)c(O)c3C2=O)ccc1F | 0.8 µM |  |  | 11 µM |  |
| O=C1c2c(ccc(O)c2O)CN1Cc1cc(Cl)ccc1F | 1.2 µM |  |  | 18 µM |  |
| O=C1c2ccc(O)c(O)c2C(=O)N1Cc1cc(F)ccc1F | 0.23 µM |  |  | 60 µM |  |
| O=C1c2c(ccc(O)c2O)CN1Cc1cccc(F)c1 | 21 µM | 1.06 µM | 8.6 µM | 238 µM |  |
| O=C1c2c(ccc(O)c2O)CN1Cc1ccc(F)cc1F | 0.5 µM |  |  | 37 µM |  |
| O=C1c2c(ccc(O)c2O)CN1Cc1cccc(F)c1F | 0.7 µM |  |  | 72 µM |  |
| O=C1c2ccc(O)c(O)c2C(=O)N1Cc1c(F)c(F)c(F)c(F)c1F | 1.3 µM |  |  | 41 µM |  |
| O=C1c2c(ccc(O)c2O)CN1Cc1ccc(Cl)c(F)c1 | 6 µM |  |  | 97 µM |  |
| O=C1c2ccc(O)c(O)c2C(=O)N1Cc1ccc(Cl)c(Cl)c1 | 0.12 µM | 2.33 µM | 4.43 µM | 18 µM |  |
| O=C1c2c(ccc(O)c2O)CN1Cc1c(F)c(F)c(F)c(F)c1F | 8 µM |  |  | 230 µM |  |
| O=C1c2ccc(O)c(O)c2C(=O)N1Cc1cccc(I)c1 | 1 µM | 7.77 µM | 12 µM | 85 µM |  |
| O=C1c2c(ccc(O)c2O)CN1Cc1cc(F)c(F)c(F)c1 | 4 µM |  |  | 99 µM |  |
| O=C1c2c(ccc(O)c2O)CN1Cc1cccc(Cl)c1F | 2 µM | 0.62 µM | 9.43 µM | 36 µM |  |
| O=C1c2c(ccc(O)c2O)CN1Cc1cc(Cl)c(F)cc1F | 4.4 µM | 0.65 µM | 8.38 µM | > 333 µM |  |
| O=C1c2c(ccc(O)c2O)CN1Cc1c(F)cccc1Cl | 18 µM |  |  | > 333 µM |  |
| O=C1c2c(ccc(O)c2O)CN1Cc1cc(F)c(F)cc1F | 3.7 µM |  |  | > 333 µM |  |
| O=C1c2c(ccc(O)c2O)CN1Cc1cccc(Cl)c1 | 4 µM | 0.54 µM | 9.02 µM | 72 µM |  |
| O=C1c2ccc(O)c(O)c2C(=O)N1Cc1c(F)cccc1Cl | 3.5 µM |  |  | 54 µM |  |
| O=C1c2c(ccc(O)c2O)CN1Cc1cccc(I)c1 | 4 µM | 1.07 µM | 6.92 µM | 169 µM |  |
| Cc1cc(CN2Cc3ccc(O)c(O)c3C2=O)ccc1F | 0.9 µM |  |  | 17 µM |  |
| O=C1c2c(ccc(O)c2O)CN1Cc1ccc(Cl)c(Cl)c1 | 0.1 µM | 3.3 µM | 5.68 µM | 89 µM |  |
| O=C1c2c(ccc(O)c2O)CN1Cc1cc(F)ccc1F | 27 µM | 1.24 µM | 13.4 µM | > 333 µM |  |
| O=C1c2ccc(O)c(O)c2C(=O)N1Cc1ccc(F)cc1 | 5 µM | 0.86 µM |  | 8 µM |  |

| Compound | IC50 [1] | EC50 [2] | IC50 [3] | IC50 [4] | Ratio IC50 [5] |
| --- | --- | --- | --- | --- | --- |
| O=C1c2c(ccc(O)c2O)CN1Cc1c(F)ccc(F)c1Cl | 8.9 µM |  |  | > 333 µM |  |
| O=C1c2ccc(O)c(O)c2C(=O)N1Cc1ccc(Cl)c(F)c1 | 0.9 µM |  |  | 58 µM |  |
| O=C1c2ccc(O)c(O)c2C(=O)N1Cc1c(F)cccc1F | 2 µM |  |  | 103 µM |  |
| O=C1c2c(ccc(O)c2O)CN1Cc1ccc(F)c(Br)c1 | 1 µM |  |  | 34 µM |  |
| O=C1c2c(ccc(O)c2O)CN1Cc1c(F)cccc1F | 20 µM |  |  | 71 µM |  |
| O=C1c2ccc(O)c(O)c2C(=O)N1Cc1ccc(F)c(Br)c1 | 0.9 µM |  |  | 11 µM |  |
| O=C1c2ccc(O)c(O)c2C(=O)N1Cc1ccc(F)c(F)c1F | 0.8 µM |  |  | 18 µM |  |
| O=C1c2ccc(O)c(O)c2C(=O)N1Cc1cc(F)cc(F)c1 | 0.4 µM |  |  | 48 µM |  |
| O=C1c2c(ccc(O)c2O)CN1Cc1ccc(F)c(Cl)c1 |  | 0.48 µM | 6.87 µM |  |  |
| O=C1c2ccc(O)c(O)c2C(=O)N1Cc1ccccc1 | 0.4 µM | 11.2 µM |  | 72 µM |  |
| O=C1c2ccc(O)c(O)c2C(=O)N1Cc1cccc(Cl)c1F | 2 µM | 2.74 µM | 11.5 µM | 25 µM |  |
| O=C1c2ccc(O)c(O)c2C(=O)N1Cc1cc(Cl)c(F)cc1F | 0.4 µM | 4.43 µM | 13.7 µM | 79 µM |  |
| O=C1c2ccc(O)c(O)c2C(=O)N1Cc1ccc(F)c(F)c1 | 0.1 µM | 5.88 µM | 7.94 µM | 27 µM |  |
| O=C1c2ccc(O)c(O)c2C(=O)N1Cc1ccc(F)c(Cl)c1 | 0.17 µM | 2.83 µM | 9.54 µM | 14 µM |  |
| O=C1c2ccc(O)c(O)c2C(=O)N1Cc1cccc(F)c1 | 0.3 µM |  |  | 11 µM |  |
| O=C1c2ccc(O)c(O)c2C(=O)N1Cc1cc(F)c(F)c(F)c1 | 0.6 µM |  |  | 10 µM |  |
| O=C1c2ccc(O)c(O)c2C(=O)N1Cc1c(F)ccc(F)c1Cl | 4 µM |  |  | 34 µM |  |
| O=C1c2ccc(O)c(O)c2C(=O)N1Cc1ccc(F)cc1Cl | 1.3 µM |  |  | 90 µM |  |
| O=C1c2ccc(O)c(O)c2C(=O)N1Cc1cccc(Br)c1 | 0.4 µM | 3.78 µM | 11.4 µM | 16 µM |  |
| O=C1c2c(ccc(O)c2O)CN1Cc1ccc(F)c(F)c1F | 2.7 µM |  |  | 153 µM |  |
| O=C1c2c(ccc(O)c2O)CN1Cc1c(F)ccc(F)c1F | 25 µM |  |  | > 333 µM |  |
| O=C1c2ccc(O)c(O)c2C(=O)N1Cc1cc(Cl)ccc1F | 0.31 µM |  |  | 9 µM |  |
| O=C1c2ccc(O)c(O)c2C(=O)N1Cc1cc(F)c(F)cc1F | 0.5 µM |  |  | 54 µM |  |
| O=C1c2ccc(O)c(O)c2C(=O)N1Cc1ccc(F)cc1F | 0.3 µM |  |  | 16 µM |  |
| O=C1c2c(ccc(O)c2O)CN1Cc1cccc(Br)c1 | 3 µM | 0.59 µM | 7.24 µM | 264 µM |  |
| O=C1c2ccc(O)c(O)c2C(=O)N1Cc1ccccc1F | 2 µM |  |  | 68 µM |  |
| O=C1c2c(ccc(O)c2O)CN1Cc1ccc(F)c(F)c1 | 0.9 µM | 1.08 µM | 9.01 µM | 72 µM |  |
